Results: patent EP1247803A2, “Indolinone compounds suitable for modulation of protein kinases” (Sugen, Inc., priority 1996, dated 1998)

Key:
FLK-1 receptor = biological target: T1, FLK-1 receptor (Mus musculus, UniProt P35918); assay: FLK-1 ELISA (kinase activity of the FLK-1 receptor in FLK-1/NIH3T3 cells, VEGF stimulated); type: cell-based
T1 construct: expressed in transfected cells; host or cells: NIH3T3 C7#3
Method in brief: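 FLK-1-expressing NIH3T3 C7#3 cells, starved overnight in 0.1% FBS medium, were treated with compounds at a 1:200 final dilution (0.5% DMSO) for 2 h at 37 °C, with VEGF stimulation. FLK-1 kinase activity was read by ELISA on anti-rabbit IgG plates using affinity-purified anti-FLK-1 antiserum.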

PDGF-R = PDGF-R (Homo sapiens, UniProt P09619); assay: PDGF-R ELISA; type: cell-based
Source text: A PDGF-R ELISA is described in International Patent Publication No. WO 96/40116, published December 19, 1996 by Tang et al.

Sequence of PDGF-R (P09619 33-1106, species assumed): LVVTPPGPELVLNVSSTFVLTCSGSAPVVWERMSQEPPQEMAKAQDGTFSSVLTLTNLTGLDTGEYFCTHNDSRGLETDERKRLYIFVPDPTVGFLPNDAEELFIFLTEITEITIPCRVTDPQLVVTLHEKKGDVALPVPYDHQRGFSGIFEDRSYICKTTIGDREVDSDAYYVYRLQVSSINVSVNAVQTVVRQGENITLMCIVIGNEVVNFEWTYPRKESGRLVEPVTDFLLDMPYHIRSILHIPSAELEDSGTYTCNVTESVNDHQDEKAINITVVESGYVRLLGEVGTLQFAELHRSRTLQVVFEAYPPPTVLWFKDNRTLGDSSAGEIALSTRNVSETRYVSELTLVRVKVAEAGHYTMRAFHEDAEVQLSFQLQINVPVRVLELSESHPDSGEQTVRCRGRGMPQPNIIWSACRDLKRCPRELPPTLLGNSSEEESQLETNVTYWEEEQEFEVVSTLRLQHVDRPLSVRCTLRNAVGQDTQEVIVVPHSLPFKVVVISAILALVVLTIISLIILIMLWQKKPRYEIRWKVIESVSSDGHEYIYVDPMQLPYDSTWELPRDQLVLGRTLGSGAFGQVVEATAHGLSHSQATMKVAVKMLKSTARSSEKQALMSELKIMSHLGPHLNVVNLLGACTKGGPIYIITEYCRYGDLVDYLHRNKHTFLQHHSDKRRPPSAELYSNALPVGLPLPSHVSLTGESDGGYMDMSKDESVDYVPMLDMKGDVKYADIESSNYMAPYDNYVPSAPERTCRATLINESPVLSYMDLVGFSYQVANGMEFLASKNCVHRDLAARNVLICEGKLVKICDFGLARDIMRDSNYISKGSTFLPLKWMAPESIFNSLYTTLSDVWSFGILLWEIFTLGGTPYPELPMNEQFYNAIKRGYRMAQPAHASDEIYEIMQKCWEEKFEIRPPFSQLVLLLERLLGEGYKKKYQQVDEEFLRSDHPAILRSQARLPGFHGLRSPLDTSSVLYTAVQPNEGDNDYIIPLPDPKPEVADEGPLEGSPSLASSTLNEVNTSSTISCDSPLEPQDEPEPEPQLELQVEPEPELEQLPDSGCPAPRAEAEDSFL
T1 sequence (P35918 20-1345): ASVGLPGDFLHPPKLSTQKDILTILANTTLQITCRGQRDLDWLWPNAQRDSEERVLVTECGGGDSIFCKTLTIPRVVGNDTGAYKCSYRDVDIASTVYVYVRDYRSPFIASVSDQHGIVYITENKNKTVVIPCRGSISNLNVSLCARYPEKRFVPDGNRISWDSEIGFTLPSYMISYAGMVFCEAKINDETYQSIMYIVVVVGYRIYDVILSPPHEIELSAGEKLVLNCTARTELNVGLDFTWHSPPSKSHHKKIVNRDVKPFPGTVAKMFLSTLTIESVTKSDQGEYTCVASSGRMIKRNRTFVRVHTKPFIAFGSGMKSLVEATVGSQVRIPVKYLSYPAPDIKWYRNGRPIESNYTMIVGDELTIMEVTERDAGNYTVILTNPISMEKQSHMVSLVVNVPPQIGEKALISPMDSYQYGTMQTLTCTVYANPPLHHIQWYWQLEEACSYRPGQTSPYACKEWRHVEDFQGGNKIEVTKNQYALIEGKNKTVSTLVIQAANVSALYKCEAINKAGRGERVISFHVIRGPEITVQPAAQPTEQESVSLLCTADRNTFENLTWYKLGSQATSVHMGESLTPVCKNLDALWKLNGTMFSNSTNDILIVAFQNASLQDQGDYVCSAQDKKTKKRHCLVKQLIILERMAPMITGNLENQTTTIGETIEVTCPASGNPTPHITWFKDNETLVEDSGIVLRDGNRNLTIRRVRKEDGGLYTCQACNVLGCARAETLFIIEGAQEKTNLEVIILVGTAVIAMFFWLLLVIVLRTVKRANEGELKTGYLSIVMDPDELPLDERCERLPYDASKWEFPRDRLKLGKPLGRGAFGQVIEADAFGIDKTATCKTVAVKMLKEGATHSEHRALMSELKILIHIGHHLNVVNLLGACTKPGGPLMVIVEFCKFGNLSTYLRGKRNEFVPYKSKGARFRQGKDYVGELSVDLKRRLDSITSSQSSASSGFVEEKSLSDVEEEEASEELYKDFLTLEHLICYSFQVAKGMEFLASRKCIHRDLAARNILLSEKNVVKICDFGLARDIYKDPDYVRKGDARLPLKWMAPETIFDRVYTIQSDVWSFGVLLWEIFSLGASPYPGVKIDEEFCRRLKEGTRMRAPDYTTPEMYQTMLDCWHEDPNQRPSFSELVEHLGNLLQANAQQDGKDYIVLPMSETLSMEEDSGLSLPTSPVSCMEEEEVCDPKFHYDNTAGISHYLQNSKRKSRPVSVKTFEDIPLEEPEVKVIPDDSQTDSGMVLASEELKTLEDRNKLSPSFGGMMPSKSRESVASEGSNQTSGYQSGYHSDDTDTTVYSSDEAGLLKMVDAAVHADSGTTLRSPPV

Cc1cc(C)c(C=C2C(=O)Nc3ccc(S(=O)(=O)N4CCOCC4)cc32)[nH]1 [10721/F08]
Fik Kinase %Inhibition (FLK-1 receptor): -6.4%

Cc1cc(C=C2C(=O)Nc3c(Br)cc(Br)cc32)cc(C)c1O [10722/A07]
Fik Kinase %Inhibition (FLK-1 receptor): 9.4%
PDGF Kinase %Inhibition (PDGF-R): 23.8%

Cc1cc(C=C2C(=O)Nc3ccc(S(=O)(=O)Nc4ccc(C(F)(F)F)cc4)cc32)sc1C [10721/E04]
Fik Kinase %Inhibition (FLK-1 receptor): 16.0%

O=C1Nc2ccc(I)cc2C1=Cc1ccc(F)cc1F [10722/B06]
Fik Kinase %Inhibition (FLK-1 receptor): 13.9%
PDGF Kinase %Inhibition (PDGF-R): 21.5%

O=C1Nc2c(Br)cc(Br)cc2C1=Cc1ccc([N+](=O)[O-])s1 [10722/A04]
Fik Kinase %Inhibition (FLK-1 receptor): 13.4%
PDGF Kinase %Inhibition (PDGF-R): -0.9%

Cc1cc(C=C2C(=O)Nc3ccc(S(=O)(=O)N4CCOCC4)cc32)sc1C [10721/F04]
Fik Kinase %Inhibition (FLK-1 receptor): 7.4%

O=C1Nc2ccc(I)cc2C1=Cc1c(O)cc(O)cc1O [10722/B03]
Fik Kinase %Inhibition (FLK-1 receptor): 13.6%
PDGF Kinase %Inhibition (PDGF-R): 3.7%

CC(C)(C)c1cc(C=C2C(=O)Nc3ccc(I)cc32)cc(Cl)c1O [10722/B08]
Fik Kinase %Inhibition (FLK-1 receptor): 11.2%
PDGF Kinase %Inhibition (PDGF-R): 27.8%

CC(C)(C)c1cc(C=C2C(=O)Nc3c(Br)cc(Br)cc32)cc(Cl)c1O [10722/A08]
Fik Kinase %Inhibition (FLK-1 receptor): 13.7%
PDGF Kinase %Inhibition (PDGF-R): 15.2%

Cc1cc(C=C2C(=O)Nc3ccc(S(=O)(=O)Nc4ccc(C(F)(F)F)cc4)cc32)cc(C)c1O [10722/E07]
Fik Kinase %Inhibition (FLK-1 receptor): 24.3%
PDGF Kinase %Inhibition (PDGF-R): 40.9%

CC(C)(C)c1cc(C=C2C(=O)Nc3ccc(S(=O)(=O)Nc4ccc(C(F)(F)F)cc4)cc32)cc([N+](=O)[O-])c1O [10722/E02]
Fik Kinase %Inhibition (FLK-1 receptor): 17.0%
PDGF Kinase %Inhibition (PDGF-R): 23.2%

CNS(=O)(=O)c1ccc2c(c1)C(=Cc1ccc(F)cc1F)C(=O)N2 [10722/D06]
Fik Kinase %Inhibition (FLK-1 receptor): 21.9%
PDGF Kinase %Inhibition (PDGF-R): 8.9%

O=C1Nc2ccc(S(=O)(=O)N3CCOCC3)cc2C1=Cc1cc2c([nH]1)CCCC2 [10721/F05]
Fik Kinase %Inhibition (FLK-1 receptor): 8.1%

O=C1Nc2ccc(I)cc2C1=Cc1ccc(C(F)(F)F)cc1 [10722/B11]
Fik Kinase %Inhibition (FLK-1 receptor): 5.2%
PDGF Kinase %Inhibition (PDGF-R): 25.5%

O=C1Nc2c(Br)cc(Br)cc2C1=Cc1ccc(C(F)(F)F)cc1 [10722/A11]
Fik Kinase %Inhibition (FLK-1 receptor): 6.7%
PDGF Kinase %Inhibition (PDGF-R): 21.5%

CNS(=O)(=O)c1ccc2c(c1)C(=Cc1ccc(C(=O)O)cc1)C(=O)N2 [10722/D05]
Fik Kinase %Inhibition (FLK-1 receptor): 21.4%
PDGF Kinase %Inhibition (PDGF-R): 22.0%

CNS(=O)(=O)c1ccc2c(c1)C(=Cc1cc(Br)c(O)c(C(C)(C)C)c1)C(=O)N2 [10721/D10]
Fik Kinase %Inhibition (FLK-1 receptor): 23.7%

O=C1Nc2ccc(S(=O)(=O)Nc3ccc(C(F)(F)F)cc3)cc2C1=Cc1ccc(C(F)(F)F)cc1 [10722/E11]
Fik Kinase %Inhibition (FLK-1 receptor): 15.3%
PDGF Kinase %Inhibition (PDGF-R): 28.3%

O=C1Nc2c(Br)cc(Br)cc2C1=Cc1c(O)cc(O)cc1O [10722/A03]
Fik Kinase %Inhibition (FLK-1 receptor): 6.7%
PDGF Kinase %Inhibition (PDGF-R): 29.5%

O=C1Nc2ccc(S(=O)(=O)Nc3ccc(C(F)(F)F)cc3)cc2C1=Cc1cc2c([nH]1)CCCC2 [10721/E05]
Fik Kinase %Inhibition (FLK-1 receptor): 10.8%

O=C1Nc2ccc(CCCl)cc2C1=Cc1ccc(Cl)s1 [10721/G07]
Fik Kinase %Inhibition (FLK-1 receptor): 3.3%

O=C1Nc2ccc(S(=O)(=O)N3CCOCC3)cc2C1=Cc1ccc(Cl)s1 [10721/F07]
Fik Kinase %Inhibition (FLK-1 receptor): 4.8%

CC(C)(C)c1cc(C=C2C(=O)Nc3ccc(S(=O)(=O)Nc4ccc(C(F)(F)F)cc4)cc32)cc(Cl)c1O [10722/E08]
Fik Kinase %Inhibition (FLK-1 receptor): 18.6%
PDGF Kinase %Inhibition (PDGF-R): 38.7%

Cc1cc(C)c(C=C2C(=O)Nc3ccc(S(=O)(=O)Nc4ccc(C(F)(F)F)cc4)cc32)[nH]1 [10721/E08]
Fik Kinase %Inhibition (FLK-1 receptor): 15.7%

O=C1Nc2ccc(S(=O)(=O)Nc3ccc(C(F)(F)F)cc3)cc2C1=Cc1ccc(F)cc1F [10722/E06]
Fik Kinase %Inhibition (FLK-1 receptor): 21.4%
PDGF Kinase %Inhibition (PDGF-R): 32.9%

Cn1cc(Cl)c(C=C2C(=O)Nc3ccc(S(=O)(=O)N4CCOCC4)cc32)n1 [10721/F03]
Fik Kinase %Inhibition (FLK-1 receptor): 9.1%

CC(C)(C)c1cc(C=C2C(=O)Nc3ccc(S(=O)(=O)N4CCOCC4)cc32)ccc1O [10721/F09]
Fik Kinase %Inhibition (FLK-1 receptor): 65.2%

Cn1cc(Cl)c(C=C2C(=O)Nc3ccc(S(=O)(=O)Nc4ccc(C(F)(F)F)cc4)cc32)n1 [10721/E03]
Fik Kinase %Inhibition (FLK-1 receptor): 10.9%

CCCCN(CCCC)c1ccc(C=C2C(=O)Nc3c(Br)cc(Br)cc32)cc1 [10722/A10]
Fik Kinase %Inhibition (FLK-1 receptor): 6.6%
PDGF Kinase %Inhibition (PDGF-R): 15.2%

CC(C)(C)c1cc(C=C2C(=O)Nc3ccc(CCCl)cc32)ccc1O [10721/G09]
Fik Kinase %Inhibition (FLK-1 receptor): 20.4%

Cc1cc(C)c(C=C2C(=O)Nc3ccc(CCCl)cc32)[nH]1 [10721/G08]
Fik Kinase %Inhibition (FLK-1 receptor): 5.4%

CC(C)(C)c1cc(C=C2C(=O)Nc3ccc(S(=O)(=O)Nc4ccc(C(F)(F)F)cc4)cc32)cc(C(C)(C)C)c1O [10721/E11]
Fik Kinase %Inhibition (FLK-1 receptor): 0.7%

CNS(=O)(=O)c1ccc2c(c1)C(=Cc1ccc([N+](=O)[O-])s1)C(=O)N2 [10722/D04]
Fik Kinase %Inhibition (FLK-1 receptor): 23.5%
PDGF Kinase %Inhibition (PDGF-R): 15.7%

CC(C)(C)c1cc(C=C2C(=O)Nc3c(Br)cc(Br)cc32)cc([N+](=O)[O-])c1O [10722/A02]
Fik Kinase %Inhibition (FLK-1 receptor): 0.8%
PDGF Kinase %Inhibition (PDGF-R): 28.9%

CNS(=O)(=O)c1ccc2c(c1)C(=Cc1ccc(F)cc1)C(=O)N2 [10717/D05]
Fik Kinase %Inhibition (FLK-1 receptor): -3.8%

CC(C)(C)c1cc(C=C2C(=O)Nc3ccc(S(=O)(=O)Nc4ccc(C(F)(F)F)cc4)cc32)cc(Br)c1O [10721/E10]
Fik Kinase %Inhibition (FLK-1 receptor): 9.3%

CCCCN(CCCC)c1ccc(C=C2C(=O)Nc3ccc(I)cc32)cc1 [10722/B10]
Fik Kinase %Inhibition (FLK-1 receptor): -0.9%
PDGF Kinase %Inhibition (PDGF-R): 20.3%

CC(C)(C)c1cc(C=C2C(=O)Nc3ccc(S(=O)(=O)N4CCOCC4)cc32)cc(C(C)(C)C)c1O [10721/F11]
Fik Kinase %Inhibition (FLK-1 receptor): 29.7%

CC(C)(C)c1cc(C=C2C(=O)Nc3ccc(S(=O)(=O)N4CCOCC4)cc32)cc(Br)c1O [10721/F10]
Fik Kinase %Inhibition (FLK-1 receptor): 49.6%

CCCCN(CCCC)c1ccc(C=C2C(=O)Nc3ccc(S(=O)(=O)Nc4ccc(C(F)(F)F)cc4)cc32)cc1 [10722/E10]
Fik Kinase %Inhibition (FLK-1 receptor): 3.1%
PDGF Kinase %Inhibition (PDGF-R): 31.8%

O=C1Nc2ccc(I)cc2C1=Cc1ccc(C(=O)O)cc1 [10722/B05]
Fik Kinase %Inhibition (FLK-1 receptor): 18.5%
PDGF Kinase %Inhibition (PDGF-R): 21.5%

Cn1c(C=C2C(=O)Nc3ccc(S(=O)(=O)Nc4ccc(C(F)(F)F)cc4)cc32)nc2ccccc21 [10721/E02]
Fik Kinase %Inhibition (FLK-1 receptor): 17.2%

CNS(=O)(=O)c1ccc2c(c1)C(=Cc1cc(Cl)c(O)c(C(C)(C)C)c1)C(=O)N2 [10722/D08]
Fik Kinase %Inhibition (FLK-1 receptor): 29.1%
PDGF Kinase %Inhibition (PDGF-R): 41.5%

Cn1c(C=C2C(=O)Nc3ccc(S(=O)(=O)N4CCOCC4)cc32)nc2ccccc21 [10721/F02]
Fik Kinase %Inhibition (FLK-1 receptor): 17.0%

O=C1Nc2ccc(S(=O)(=O)Nc3ccc(C(F)(F)F)cc3)cc2C1=Cc1ccc([N+](=O)[O-])s1 [10722/E04]
Fik Kinase %Inhibition (FLK-1 receptor): 38.6%
PDGF Kinase %Inhibition (PDGF-R): 30.6%

CNS(=O)(=O)c1ccc2c(c1)C(=Cc1cc(C(C)(C)C)c(O)c(C(C)(C)C)c1)C(=O)N2 [10721/D11]
Fik Kinase %Inhibition (FLK-1 receptor): 20.6%

Cn1cc(Cl)c(C=C2C(=O)Nc3ccc(CCCl)cc32)n1 [10721/G03]
Fik Kinase %Inhibition (FLK-1 receptor): 12.1%

O=C1Nc2c(Br)cc(Br)cc2C1=Cc1ccc(F)cc1F [10722/A06]
Fik Kinase %Inhibition (FLK-1 receptor): 9.6%
PDGF Kinase %Inhibition (PDGF-R): 19.8%

CNS(=O)(=O)c1ccc2c(c1)C(=Cc1ccc(Br)cc1)C(=O)N2 [10717/D08]
Fik Kinase %Inhibition (FLK-1 receptor): 6.8%

O=C1Nc2ccc(S(=O)(=O)Nc3ccc(C(F)(F)F)cc3)cc2C1=Cc1cc([N+](=O)[O-])cc(CCl)c1O [10721/E06]
Fik Kinase %Inhibition (FLK-1 receptor): 40.4%

O=C1Nc2ccc(S(=O)(=O)N3CCOCC3)cc2C1=Cc1cc([N+](=O)[O-])cc(CCl)c1O [10721/F06]
Fik Kinase %Inhibition (FLK-1 receptor): 2.2%

O=C1Nc2ccc(CCCl)cc2C1=Cc1cc([N+](=O)[O-])cc(CCl)c1O [10721/G06]
Fik Kinase %Inhibition (FLK-1 receptor): 18.9%

CNS(=O)(=O)c1ccc2c(c1)C(=Cc1cccs1)C(=O)N2 [10717/D03]
Fik Kinase %Inhibition (FLK-1 receptor): 1.1%

CNS(=O)(=O)c1ccc2c(c1)C(=Cc1ccc(C)s1)C(=O)N2 [10717/D07]
Fik Kinase %Inhibition (FLK-1 receptor): -8.4%

CNS(=O)(=O)c1ccc2c(c1)C(=Cc1c[nH]c3ccccc13)C(=O)N2 [10717/D06]
Fik Kinase %Inhibition (FLK-1 receptor): 1.0%

CNS(=O)(=O)c1ccc2c(c1)C(=Cc1c(O)cccc1OC)C(=O)N2 [10717/D10]
Fik Kinase %Inhibition (FLK-1 receptor): -6.0%

O=C1Nc2ccc(S(=O)(=O)Nc3ccc(C(F)(F)F)cc3)cc2C1=Cc1ccc(Cl)s1 [10721/E07]
Fik Kinase %Inhibition (FLK-1 receptor): 15.6%

Cc1cc(C=C2C(=O)Nc3ccc(CCCl)cc32)sc1C [10721/G04]
Fik Kinase %Inhibition (FLK-1 receptor): 3.2%

O=C1Nc2ccc(CCCl)cc2C1=Cc1cc2c([nH]1)CCCC2 [10721/G05]
Fik Kinase %Inhibition (FLK-1 receptor): -15.1%

CNS(=O)(=O)c1ccc2c(c1)C(=Cc1cccn1C)C(=O)N2 [10717/D04]
Fik Kinase %Inhibition (FLK-1 receptor): -2.1%

Cn1c(C=C2C(=O)Nc3ccc(CCCl)cc32)nc2ccccc21 [10721/G02]
Fik Kinase %Inhibition (FLK-1 receptor): 16.4%

CNS(=O)(=O)c1ccc2c(c1)C(=Cc1ccc[nH]1)C(=O)N2 [10717/D09]
Fik Kinase %Inhibition (FLK-1 receptor): -55.0%

O=C1Nc2c(Br)cc(Br)cc2C1=Cc1cccs1 [10717/A03]
Fik Kinase %Inhibition (FLK-1 receptor): 2.9%

CC(C)(C)c1cc(C=C2C(=O)Nc3ccc(S(=O)(=O)Nc4ccc(C(F)(F)F)cc4)cc32)ccc1O [10721/E09]
Fik Kinase %Inhibition (FLK-1 receptor): 36.9%

CC(C)(C)c1cc(C=C2C(=O)Nc3ccc(CCCl)cc32)cc(C(C)(C)C)c1O [10721/G11]
Fik Kinase %Inhibition (FLK-1 receptor): -7.1%

CC(C)(C)c1cc(C=C2C(=O)Nc3ccc(CCCl)cc32)cc(Br)c1O [10721/G10]
Fik Kinase %Inhibition (FLK-1 receptor): 24.4%

CCOc1ccccc1C=C1C(=O)Nc2ccc(S(=O)(=O)NC)cc21 [10717/D02]
Fik Kinase %Inhibition (FLK-1 receptor): 5.1%
